In article PMC7338687, “Allosteric Coupling Between Drug Binding and the Aromatic Cassette in the Pore Domain of the hERG1 Channel: Implications for a State-Dependent Blockade” (Frontiers in Pharmacology, 2020):
pIC50: −log10 of the molar value. Read-outs that look alike come from different tables or passages of the source.

Legend:
M651T hERG1 = tested on: M651T hERG1; design: method as in Perissinotti et al., 2019; details: ref Perissinotti et al., 2019; cited from earlier work
guinea pig myocytes = tested on: guinea pig myocytes; design: method as in Duff et al., 1995; details: ref Duff et al., 1995, cited from earlier work
F557L/F656C hERG1 = biological target: T1, F557L/F656C hERG1 (Homo sapiens, UniProt Q12809, F557L/F656C); test: whole-cell patch-clamp of hERG1 tail currents, double mutation F557L/F656C; format: cell-based
T1 construct: expressed in transfected cells; host or cells: HEK 293
Source text: (§1) The site-directed mutagenesis methods utilized in this work have been previously reported ([Lees-Miller et al., 2015]; [Wang et al., 2016]). The hERG1 constructs were transfected into mammalian HEK cells. Conventional overlap PCR with primers were synthesized by Sigma Genosys (Oakville, Ontario, Canada) and sequenced by using Eurofins MWG Operon (Huntsville, AL) to create the single- and double-point mutant constructs of hERG1. Following this, XbaI restriction endonuclease was used to linearize and the cRNA was transcribed in vitro using the mMessage mMachine T7 Ultra cRNA transcription kit (Ambion, Austin, TX).
(§2) All experiments were performed under room temperature (295 K). The extracellular solution contained (mM) NaCl 140, KCl 5.4, CaCl2 1, MgCl2 1, HEPES 5, glucose 5.5; the pH of the solution was adjusted and kept at 7.4 with NaOH solution. Micropipettes were pulled from borosilicate glass capillary tubes using a programmable horizontal puller (Sutter Instruments, Novato, CA). […] Tail currents were recorded when the voltage was returned to −100 mV from +50 mV. […] The changes of hERG1 currents during the intracellular dialysis of the drug were monitored each minute right after forming the whole cell configuration. […]

F656C hERG1 = F656C hERG1 (Homo sapiens, UniProt Q12809, F656C); test: whole-cell patch-clamp of hERG1 tail currents, F656C mutant
Source text: as §1, §2

hERG1 = biological target: T2, hERG1 (Homo sapiens, UniProt Q12809); test: intracellular application of drug via the patch pipette, hERG1 current; format: cell-based; details: 100 µM (15-fold greater than extracellular IC50)
T2 construct: expressed in transfected cells; host or cells: HEK 293
Experimental: All experiments were performed under room temperature (295 K). The extracellular solution contained (mM) NaCl 140, KCl 5.4, CaCl2 1, MgCl2 1, HEPES 5, glucose 5.5; the pH of the solution was adjusted and kept at 7.4 with NaOH solution. Micropipettes were pulled from borosilicate glass capillary tubes using a programmable horizontal puller (Sutter Instruments, Novato, CA). The “intracellular” pipette solution contained the following: 10 mM KCl, 110 mM K-aspartate, 5 mM MgCl2, 5 mM Na2ATP, 10 mM EGTA [ethylene glycol-bis(-aminoethyl ether)-N,N,N,N tetraacetic acid], 5 mM HEPES, and 1mM CaCl2. The internal solution was then adjusted to pH 7.2 with KOH solution. Transfected HEK cells were patched to record the hERG1 currents. Standard patch-clamp methods were used to measure the whole cell currents of hERG1 mutants expressed in HEK 293 cells using the AXOPATCH 200B amplifier (Axon Instruments). Tail currents were recorded when the voltage was returned to −100 mV from +50 mV. Ivabradine was dissolved in Tyrode solution immediately before the experiments and the solutions were used for the next 2 h during the experiments. […] The changes of hERG1 currents during the intracellular dialysis of the drug were monitored each minute right after forming the whole cell configuration.

WT hERG1 = WT hERG1 (Homo sapiens, UniProt Q12809); test: cell-based; details: HEK 293 cells
Source text: as §1, §2

Chain of WT hERG1 (Q12809 whole entry): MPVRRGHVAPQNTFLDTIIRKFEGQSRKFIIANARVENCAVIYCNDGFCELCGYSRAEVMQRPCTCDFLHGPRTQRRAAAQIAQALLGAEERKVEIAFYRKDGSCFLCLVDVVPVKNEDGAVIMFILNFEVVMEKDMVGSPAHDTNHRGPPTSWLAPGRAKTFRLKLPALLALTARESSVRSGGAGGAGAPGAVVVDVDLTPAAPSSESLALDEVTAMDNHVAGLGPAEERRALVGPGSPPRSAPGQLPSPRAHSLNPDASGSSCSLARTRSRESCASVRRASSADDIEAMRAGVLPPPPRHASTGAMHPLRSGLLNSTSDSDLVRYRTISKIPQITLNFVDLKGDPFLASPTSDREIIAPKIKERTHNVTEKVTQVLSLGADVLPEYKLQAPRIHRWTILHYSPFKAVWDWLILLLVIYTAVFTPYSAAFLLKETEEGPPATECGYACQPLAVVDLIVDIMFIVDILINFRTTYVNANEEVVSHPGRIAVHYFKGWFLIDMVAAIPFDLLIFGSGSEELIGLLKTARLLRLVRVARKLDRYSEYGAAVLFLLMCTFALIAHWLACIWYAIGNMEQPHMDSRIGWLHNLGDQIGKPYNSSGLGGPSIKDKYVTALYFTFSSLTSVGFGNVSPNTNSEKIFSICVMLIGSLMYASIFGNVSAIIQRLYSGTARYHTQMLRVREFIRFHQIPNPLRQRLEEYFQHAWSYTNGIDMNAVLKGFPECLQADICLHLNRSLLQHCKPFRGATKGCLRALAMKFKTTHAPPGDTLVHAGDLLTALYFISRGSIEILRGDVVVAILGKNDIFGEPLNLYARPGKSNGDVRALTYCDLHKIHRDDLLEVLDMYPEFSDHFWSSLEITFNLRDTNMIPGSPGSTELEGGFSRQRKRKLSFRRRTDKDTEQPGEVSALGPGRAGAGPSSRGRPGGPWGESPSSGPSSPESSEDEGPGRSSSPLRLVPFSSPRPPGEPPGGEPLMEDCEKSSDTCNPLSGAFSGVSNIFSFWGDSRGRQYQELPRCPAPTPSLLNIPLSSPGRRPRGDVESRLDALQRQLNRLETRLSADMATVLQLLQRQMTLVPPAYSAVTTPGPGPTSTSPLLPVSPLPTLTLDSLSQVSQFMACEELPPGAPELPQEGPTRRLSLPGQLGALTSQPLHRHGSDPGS
T1 sequence (Q12809 whole entry F557L/F656C): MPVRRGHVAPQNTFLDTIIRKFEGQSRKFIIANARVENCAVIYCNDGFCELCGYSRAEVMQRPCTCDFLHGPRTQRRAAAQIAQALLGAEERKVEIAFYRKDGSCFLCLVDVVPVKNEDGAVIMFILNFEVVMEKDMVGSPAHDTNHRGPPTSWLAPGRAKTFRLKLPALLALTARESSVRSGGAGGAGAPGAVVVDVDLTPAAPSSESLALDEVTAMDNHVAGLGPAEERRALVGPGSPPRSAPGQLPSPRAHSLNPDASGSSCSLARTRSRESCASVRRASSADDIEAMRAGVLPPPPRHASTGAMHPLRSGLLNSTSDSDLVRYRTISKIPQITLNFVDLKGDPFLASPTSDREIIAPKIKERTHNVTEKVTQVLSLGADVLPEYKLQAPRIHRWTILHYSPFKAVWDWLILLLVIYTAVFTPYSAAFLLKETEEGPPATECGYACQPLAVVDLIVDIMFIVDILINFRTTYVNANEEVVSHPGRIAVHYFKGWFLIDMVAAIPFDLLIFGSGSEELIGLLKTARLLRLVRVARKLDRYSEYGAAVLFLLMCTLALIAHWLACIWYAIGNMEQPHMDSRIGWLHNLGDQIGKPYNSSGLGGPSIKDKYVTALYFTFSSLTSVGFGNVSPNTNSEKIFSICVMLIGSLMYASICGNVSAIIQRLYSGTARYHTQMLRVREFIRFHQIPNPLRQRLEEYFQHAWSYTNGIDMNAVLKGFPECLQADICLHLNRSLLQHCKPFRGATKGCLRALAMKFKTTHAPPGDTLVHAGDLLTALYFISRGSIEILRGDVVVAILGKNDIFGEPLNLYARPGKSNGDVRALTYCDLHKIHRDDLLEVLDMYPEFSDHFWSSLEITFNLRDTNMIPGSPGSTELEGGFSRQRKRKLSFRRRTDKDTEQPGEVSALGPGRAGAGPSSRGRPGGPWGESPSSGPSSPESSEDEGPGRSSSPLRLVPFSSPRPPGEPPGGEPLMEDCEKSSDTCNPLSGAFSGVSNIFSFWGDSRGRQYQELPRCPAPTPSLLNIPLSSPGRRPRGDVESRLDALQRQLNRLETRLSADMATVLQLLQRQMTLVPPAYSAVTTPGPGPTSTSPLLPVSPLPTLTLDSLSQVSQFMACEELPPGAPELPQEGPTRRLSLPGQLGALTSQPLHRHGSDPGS
T2 sequence (Q12809 whole entry): as the sequence (Q12809 whole entry) above
Chain of F656C hERG1 (Q12809 whole entry F656C): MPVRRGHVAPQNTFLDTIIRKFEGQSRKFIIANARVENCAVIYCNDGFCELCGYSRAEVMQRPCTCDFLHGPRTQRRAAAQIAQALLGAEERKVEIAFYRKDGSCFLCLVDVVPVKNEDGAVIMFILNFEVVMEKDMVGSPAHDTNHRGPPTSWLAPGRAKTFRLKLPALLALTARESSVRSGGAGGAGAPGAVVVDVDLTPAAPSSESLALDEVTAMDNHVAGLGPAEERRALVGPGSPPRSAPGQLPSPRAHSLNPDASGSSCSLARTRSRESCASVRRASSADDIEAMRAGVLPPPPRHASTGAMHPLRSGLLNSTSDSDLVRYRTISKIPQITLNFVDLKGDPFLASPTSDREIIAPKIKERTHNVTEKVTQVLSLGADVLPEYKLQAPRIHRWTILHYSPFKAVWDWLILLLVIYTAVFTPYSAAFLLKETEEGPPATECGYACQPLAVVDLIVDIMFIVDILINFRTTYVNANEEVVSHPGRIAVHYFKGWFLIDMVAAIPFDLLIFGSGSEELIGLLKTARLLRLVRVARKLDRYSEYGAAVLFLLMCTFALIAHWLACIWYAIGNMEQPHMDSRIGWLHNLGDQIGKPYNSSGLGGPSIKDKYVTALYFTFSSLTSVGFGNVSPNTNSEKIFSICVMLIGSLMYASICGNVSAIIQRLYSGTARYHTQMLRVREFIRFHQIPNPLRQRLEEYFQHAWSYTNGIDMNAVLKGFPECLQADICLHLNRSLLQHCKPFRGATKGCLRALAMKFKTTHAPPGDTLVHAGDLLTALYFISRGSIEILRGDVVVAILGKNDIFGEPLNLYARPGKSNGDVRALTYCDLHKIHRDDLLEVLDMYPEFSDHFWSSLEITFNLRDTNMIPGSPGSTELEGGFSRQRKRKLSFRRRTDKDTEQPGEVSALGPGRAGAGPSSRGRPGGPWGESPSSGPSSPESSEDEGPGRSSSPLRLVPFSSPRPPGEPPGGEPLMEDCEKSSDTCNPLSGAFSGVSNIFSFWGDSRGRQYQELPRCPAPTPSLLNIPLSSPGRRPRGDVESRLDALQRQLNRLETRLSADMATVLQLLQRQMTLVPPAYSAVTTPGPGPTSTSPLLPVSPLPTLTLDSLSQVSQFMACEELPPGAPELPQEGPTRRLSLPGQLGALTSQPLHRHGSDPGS

CN(CCOc1ccc(NS(C)(=O)=O)cc1)CCc1ccc(NS(C)(=O)=O)cc1 [dofetilide]
sensitivity of block to the M651T mutation (M651T hERG1): insensitive | pIC50 (guinea pig myocytes; read-out: high affinity for binding of dofetilide, high-affinity site): 7.00 | pIC50 (guinea pig myocytes; read-out: low affinity for binding of dofetilide (low affinity IC50 value), low-affinity site): 6.00

COc1cc2c(cc1OC)CC(=O)N(CCCN(C)C[C@H]1Cc3cc(OC)c(OC)cc31)CC2 [ivabradine]
block in raw current traces (F557L/F656C hERG1; F557L/F656C, 100 µM Ivabradine vs control): no block | blocking (F557L/F656C hERG1; double mutant F557L/F656C, suprapharmacologic concentrations (dofetilide 20 µM, ivabradine 100 µM)): ~ 15% | pIC50 (F656C hERG1): 4.35 | block of hERG1 current when applied intracellularly (hERG1): little block | pIC50 (WT hERG1; IC50 for block (Hill fit), WT, Figure 7A): 5.17 | pIC50 (WT hERG1; IC50 for block of hERG1, WT, applied extracellularly, tail currents, room temperature): 5.17
